Earlier results, collected in patent publication US20190320628A1, “A NON-HUMAN ANIMAL MODEL OF NEURODEGENERATIVE DISORDERS” (priority 2016, published 2019).

Assays:
Wistar rats = conditions: KA alone
animals = conditions: KA used to model human epilepsy, SE/cSE-based models
rats = conditions: initial KA dose 5 mg/kg i.p., subsequent doses tailored

## C=C(C)[C@H]1CN[C@H](C(=O)O)[C@H]1CC(=O)O [KA, kainic acid]
Wistar rats
  Non-responders among the surviving animals: 20-40%
Wistar rats; SE terminated by diazepam
  Mortality: up to 30%
animals
  Mortality: up to 50%
  Non-responders (surviving animals that never exhibit spontaneous seizures): up to 50%
rats
  Mortality rate: around 15%
